In patent US20240173330A1, “USE OF ATR INHIBITORS IN COMBINATION WITH PARP INHIBITORS FOR TREATING CANCER” (Repare Therapeutics Inc., priority 2021, published 2024):

Experiments:
Assay type in all cases: cell-based
[1] = test system: RNASEH2B+/+ and RNASEH2B−/− cells; assay: Synergy between ATR inhibitor and PARP inhibitor in RNASEH2B+/+ and RNASEH2B−/− cells; details: combination of ATR inhibitor and PARP inhibitor
Source text: An ATR inhibitor (e.g., compound 121) may synergize with a PARP inhibitor (e.g., 5-[4-[(7-ethyl-6-oxo-5H-1,5-naphthyridin-3-yl)methyl]piperazin-1-yl]-N-methyl-pyridine-2-carboxamide) in RNASEH2B+/+ and RNASEH2B−/− cells. Importantly, in RNASEH2B−/− cells, synergy (e.g., maximum synergy) may be achieved at lower concentrations of an ATR inhibitor (e.g., compound 121) and lower concentrations of the PARP inhibitor (e.g., 5-[4-[(7-ethyl-6-oxo-5H-1,5-naphthyridin-3-yl)methyl]piperazin-1-yl]-N-methyl-pyridine-2-carboxamide) than in RNASEH2B+/+ cells. As a result, the apparent IC50 of the PARP inhibitor may shift in the presence of the ATR inhibitor (e.g., compound 121).
In addition to selecting a sensitized genetic background, tolerability of the combination treatment with an ATR inhibitor and PARP inhibitor can be improved by optimizing dosing schedules (Fang et al., Cancer Cell, 35:851-867, 2019). To guide the combined dosing of the ATR inhibitor (e.g., compound 121) and the PARP inhibitor (e.g., 5-[4-[(7-ethyl-6-oxo-5H-1,5-naphthyridin-3-yl)methyl]piperazin-1-yl]-N-methyl-pyridine-2-carboxamide) in RNASEH2B-deficient tumor cells, a continuous longer (e.g., 168 h) concomitant treatment of RNASEH2B+/+ and −/− cells with both compounds may be compared to a shorter (e.g., either a 48 or 72 h) treatment followed by removal of compounds and growth in drug-free media. […]

[2] = test system: isogenic cell lines lacking CDK12 or BRCA2; assay: 48-hr combination treatment of isogenic cell lines lacking CDK12 or BRCA2; details: 48-hr treatment with combination
Source text: The optimized dosing schedule may be applicable to cells carrying mutations not only in RNASEH2B, but additional genes.

[3] = test system: tumor cells that employ the Alternative Lengthening of Telomeres (ALT) mechanism; assay: Combination against ALT tumor cells; details: combination of ATR inhibitor with PARP inhibitor
Source text: In addition to tumors carrying the above-mentioned genetic alterations, the combination of ATR inhibitors (e.g., Compound 121) with PARP inhibitors (e.g., 5-[4-[(7-ethyl-6-oxo-5H-1,5-naphthyridin-3-yl)methyl]piperazin-1-yl]-N-methyl-pyridine-2-carboxamide) may be effective against tumor cells that employ the Alternative Lengthening of Telomeres (ALT) mechanism.

| Structure (SMILES) | synergy of ATR inhibitor with PARP inhibitor [1] | synergistic sensitization [2] | effectiveness of combination against ALT tumor cells [3] |
| --- | --- | --- | --- |
| C[C@@H]1COCCN1c1cc([C@@]2(O)C[C@H]3CC[C@@H](C2)O3)c2cnn(-c3cc[nH]n3)c2n1 [compound 121] | synergize | synergistically sensitize | effective |
| CCc1cc2ncc(CN3CCN(c4ccc(C(=O)NC)nc4)CC3)cc2[nH]c1=O [5-[4-[(7-ethyl-6-oxo-5H-1,5-naphthyridin-3-yl)methyl]piperazin-1-yl]-N-methyl-pyridine-2-carboxamide] | synergize | synergistically sensitize | effective |
